Measurements published in US7902373B2 (Pfizer Inc, priority 2006, dated 2011).
pIC50: −log10 of the molar value.

Molecular target: human recombinant H-PGDS (Homo sapiens, UniProt O60760)
Assay: Fluorescence intensity h-PGDS TBA enzyme assay
Type: biochemical
Conditions: Examples up to 622 (and 3a, 3b)

Sequence of human recombinant H-PGDS (O60760 whole entry): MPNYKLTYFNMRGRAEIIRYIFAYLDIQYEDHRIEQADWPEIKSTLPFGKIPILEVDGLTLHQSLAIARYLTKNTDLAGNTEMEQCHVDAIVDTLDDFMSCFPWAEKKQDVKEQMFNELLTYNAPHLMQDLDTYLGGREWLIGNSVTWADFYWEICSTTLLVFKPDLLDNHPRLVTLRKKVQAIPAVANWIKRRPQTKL

Row | pIC50 | SMILES
1 | 8.57 | O=C(NC1CCN(C2CCC(=O)N(CC3CC3)CC2)CC1)c1ccc(-c2cccc(F)c2)nc1 (centres unmarked) [Example 537, N-{1-[1-(Cyclopropylmethyl)-7-oxoazepan-4-yl]piperidin-4-yl}-6-(3-fluorophenyl)nicotinamide]
2 | 8.71 | CC(C)CN1CCC(N2CCC(NC(=O)c3ccc(-c4cccc(F)c4)nc3)CC2)CCC1=O (centres unmarked) [Example 538, 6-(3-Fluorophenyl)-N-[1-(1-isobutyl-7-oxoazepan-4-yl)piperidin-4-yl]nicotinamide]
3 | 8.57 | COCCN1CCC(N2CCC(NC(=O)c3ccc(-c4cccc(F)c4)nc3)CC2)CCC1=O (centres unmarked) [Example 539, 6-(3-Fluorophenyl)-N-{1-[1-(2-methoxyethyl)-7-oxoazepan-4-yl]piperidin-4-yl}nicotinamide]
4 | 8.70 | CC(c1cnn(-c2ccccc2)c1)N1CCC(NC(=O)c2ccc(-c3cccc(F)c3)nc2)CC1 (centres unmarked) [Example 540, 6-(3-Fluorophenyl)-N-{1-[1-(1-phenyl-1H-pyrazol-4-yl)ethyl]piperidin-4-yl}nicotinamide]
5 | 9.02 | CCC(c1ccc(OC)c(OC)c1)N1CCC(NC(=O)c2ccc(-c3cccc(F)c3)nc2)CC1 (centres unmarked) [Example 541, N-{1-[1-(3,4-Dimethoxyphenyl)propyl]piperidin-4-yl}-6-(3-fluorophenyl)nicotinamide]
6 | 8.77 | O=C(NC1CCN(C2CCC(=O)N(CC3CCC3)CC2)CC1)c1ccc(-c2cccc(F)c2)nc1 (centres unmarked) [Example 542, N-{1-[1-(Cyclobutylmethyl)-7-oxoazepan-4-yl]piperidin-4-yl}-6-(3-fluorophenyl)nicotinamide]
7 | 8.49 | COc1ccc(C(C)N2CCC(NC(=O)c3ccc(-c4cccc(F)c4)nc3)CC2)c(OC)c1 (centres unmarked) [Example 543, N-{1-[1-(2,4-Dimethoxyphenyl)ethyl]piperidin-4-yl}-6-(3-fluorophenyl)nicotinamide]
8 | 8.90 | COc1cc(OC)cc(C(C)N2CCC(NC(=O)c3ccc(-c4cccc(F)c4)nc3)CC2)c1 (centres unmarked) [Example 544, N-{1-[1-(3,5-Dimethoxyphenyl)ethyl]piperidin-4-yl}-6-(3-fluorophenyl)nicotinamide]
9 | 8.58 | CCC(C)N1CCC(NC(=O)c2ccc(-c3cccc(F)c3)nc2)CC1 (centres unmarked) [Example 545, N-(1-sec-Butylpiperidin-4-yl)-6-(3-fluorophenyl)nicotinamide]
10 | 8.55 | CC(=O)NC1CCC(N2CCC(NC(=O)c3ccc(-c4cccc(F)c4)nc3)CC2)CC1 (centres unmarked) [Example 546, N-{1-[4-(Acetylamino)cyclohexyl]piperidin-4-yl}-6-(3-fluorophenyl)nicotinamide]
11 | 8.94 | O=C(NC1CCN(C2CCOCC2)CC1)c1ccc(-c2cccc(F)c2)nc1 [Example 547, 6-(3-Fluorophenyl)-N-[1-(tetrahydro-2H-pyran-4-yl)piperidin-4-yl]nicotinamide]
12 | 8.68 | CC(CCn1cccn1)N1CCC(NC(=O)c2ccc(-c3cccc(F)c3)nc2)CC1 (centres unmarked) [Example 548, 6-(3-Fluorophenyl)-N-{1-[1-methyl-3-(1H-pyrazol-1-yl)propyl]piperidin-4-yl}nicotinamide]
13 | 8.65 | COC1CCCC(N2CCC(NC(=O)c3ccc(-c4cccc(F)c4)nc3)CC2)C1 (centres unmarked) [Example 549, 6-(3-Fluorophenyl)-N-[1-(3-methoxycyclohexyl)piperidin-4-yl]nicotinamide]
14 | 8.62 | CC(CCO)N1CCC(NC(=O)c2ccc(-c3cccc(F)c3)nc2)CC1 (centres unmarked) [Example 550, 6-(3-Fluorophenyl)-N-[1-(3-hydroxy-1-methylpropyl)piperidin-4-yl]nicotinamide]
15 | 8.88 | O=C(NC1CCN(C2CCCC2)CC1)c1ccc(-c2cccc(F)c2)nc1 [Example 551, N-(1-Cyclopentylpiperidin-4-yl)-6-(3-fluorophenyl)nicotinamide]
16 | 8.63 | O=C(NC1CCN(C2CNC2)CC1)c1ccc(-c2cccc(F)c2)nc1 [Example 552, N-(1-Azetidin-3-ylpiperidin-4-yl)-6-(3-fluorophenyl)nicotinamide]
17 | 8.75 | COc1ccccc1OCC(C)N1CCC(NC(=O)c2ccc(-c3cccc(F)c3)nc2)CC1 (centres unmarked) [Example 553, 6-(3-Fluorophenyl)-N-{1-[2-(2-methoxyphenoxy)-1-methylethyl]piperidin-4-yl}nicotinamide]
18 | 8.76 | O=C(NC1CCN(C2CCC(O)(c3cncnc3)CC2)CC1)c1ccc(-c2cccc(F)c2)nc1 (centres unmarked) [Example 554, 6-(3-Fluorophenyl)-N-[1-(4-hydroxy-4-pyrimidin-5-ylcyclohexyl)piperidin-4-yl]nicotinamide]

The next lines start with the compound.

Row | SMILES | pIC50
19 | O=C1COc2ncc(CN3CCC(NC(=O)c4ccc(-c5cccc(F)c5)nc4)CC3)cc2N1 [Example 514, 6-(3-Fluorophenyl)-N-{1-[(2-oxo-2,3-dihydro-1H-pyrido[2,3-b][1,4]oxazin-7-yl)methyl]piperidin-4-yl}nicotinamide] | 9.46
20 | COc1ccc(C)cc1CN1CCC(NC(=O)c2ccc(-c3cccc(F)c3)nc2)CC1 [Example 515, 6-(3-Fluorophenyl)-N-[1-(2-methoxy-5-methylbenzyl)piperidin-4-yl]nicotinamide] | 8.96
21 | CCCn1cc(CN2CCC(NC(=O)c3ccc(-c4cccc(F)c4)nc3)CC2)cn1 [Example 516, 6-(3-Fluorophenyl)-N-{1-[(1-propyl-1H-pyrazol-4-yl)methyl]piperidin-4-yl}nicotinamide] | 8.66
22 | CCCn1nccc1CN1CCC(NC(=O)c2ccc(-c3cccc(F)c3)nc2)CC1 [Example 517, 6-(3-Fluorophenyl)-N-{1-[(1-propyl-1H-pyrazol-5-yl)methyl]piperidin-4-yl}nicotinamide] | 9.39
23 | O=C(NC1CCN(Cc2coc3ccccc23)CC1)c1ccc(-c2cccc(F)c2)nc1 [Example 518, N-[1-(1-Benzofuran-3-ylmethyl)piperidin-4-yl]-6-(3-fluorophenyl)nicotinamide] | 9.02
24 | Cn1ncc(Cl)c1CN1CCC(NC(=O)c2ccc(-c3cccc(F)c3)nc2)CC1 [Example 519, N-{1-[(4-Chloro-1-methyl-1H-pyrazol-5-yl)methyl]piperidin-4-yl}-6-(3-fluorophenyl)nicotinamide] | 9.35
25 | O=C(NC1CCN(Cc2ccc3occc3c2)CC1)c1ccc(-c2cccc(F)c2)nc1 [Example 520, N-[1-(1-Benzofuran-5-ylmethyl)piperidin-4-yl]-6-(3-fluorophenyl)nicotinamide] | 8.71
26 | O=C(NC1CCN(C(=O)OCc2ccccc2)CC1)c1ccc(-c2cccc(F)c2)nc1 [Example 521, Benzyl 4-({[6-(3-fluorophenyl)pyridin-3-yl]carbonyl}amino)piperidine-1-carboxylate] | 6.25
27 | CC(C)(C)OC(=O)N1[C@@H]2CC[C@H]1CC(NC(=O)c1ccc(-c3cccc(F)c3)nc1)C2 (stereo partly drawn) [Example 522, tert-Butyl (1R,5S)-3-({[6-(3-fluorophenyl)pyridin-3-yl]carbonyl}amino)-8-azabicyclo[3.2.1]octane-8-carboxylate] | 8.18
28 | CC(C)(C)OC(=O)N1CCC(NC(=O)c2ccc(-c3cccc(F)c3)nc2)C(c2ccc(F)cc2)C1 (centres unmarked) [Example 523, tert-Butyl 3-(4-fluorophenyl)-4-({[6-(3-fluorophenyl)pyridin-3-yl]carbonyl}amino)piperidine-1-carboxylate] | 6.66
29 | O=CN1CCC(NC(=O)c2ccc(-c3cccc(F)c3)nc2)CC1 [Example 524, 6-(3-Fluorophenyl)-N-(1-formylpiperidin-4-yl)nicotinamide] | 8.75
30 | O=C(NC1CCNCC1c1ccc(F)cc1)c1ccc(-c2cccc(F)c2)nc1 (centres unmarked) [Example 525, 6-(3-Fluorophenyl)-N-[3-(4-fluorophenyl)piperidin-4-yl]nicotinamide] | 7.83
31 | CC(=O)N1CCC(NC(=O)c2ccc(-c3cccc(F)c3)nc2)C(c2ccc(F)cc2)C1 (centres unmarked) [Example 526] | 7.12
32 | CC(CC1CC1)N1CCC(NC(=O)c2ccc(-c3cccc(F)c3)nc2)CC1 (centres unmarked) [Example 527, N-[1-(2-Cyclopropyl-1-methylethyl)piperidin-4-yl]-6-(3-fluorophenyl)nicotinamide] | 8.55
33 | COc1ccc2c(c1)CCC2N1CCC(NC(=O)c2ccc(-c3cccc(F)c3)nc2)CC1 (centres unmarked) [Example 528, 6-(3-Fluorophenyl)-N-[1-(5-methoxy-2,3-dihydro-1H-inden-1-yl)piperidin-4-yl]nicotinamide] | 8.60
34 | CC(CC1(C)CC1)N1CCC(NC(=O)c2ccc(-c3cccc(F)c3)nc2)CC1 (centres unmarked) [Example 529, 6-(3-Fluorophenyl)-N-{1-[1-methyl-2-(1-methylcyclopropyl)ethyl]piperidin-4-yl}nicotinamide] | 8.60
35 | COc1ccccc1C(C)N1CCC(NC(=O)c2ccc(-c3cccc(F)c3)nc2)CC1 (centres unmarked) [Example 530, 6-(3-Fluorophenyl)-N-{1-[1-(2-methoxyphenyl)ethyl]piperidin-4-yl}nicotinamide] | 8.57
36 | CC(c1ccccc1)N1CCC(NC(=O)c2ccc(-c3cccc(F)c3)nc2)CC1 (centres unmarked) [Example 531, 6-(3-Fluorophenyl)-N-[1-(1-phenylethyl)piperidin-4-yl]nicotinamide] | 8.94
37 | COc1cccc(C(C)N2CCC(NC(=O)c3ccc(-c4cccc(F)c4)nc3)CC2)c1 (centres unmarked) [Example 532, 6-(3-Fluorophenyl)-N-{1-[1-(3-methoxyphenyl)ethyl]piperidin-4-yl}nicotinamide] | 8.89
38 | COc1cccc(OC)c1C(C)N1CCC(NC(=O)c2ccc(-c3cccc(F)c3)nc2)CC1 (centres unmarked) [Example 533, N-{1-[1-(2,6-Dimethoxyphenyl)ethyl]piperidin-4-yl}-6-(3-fluorophenyl)nicotinamide] | 8.62
39 | COc1ccc(CC(C)N2CCC(NC(=O)c3ccc(-c4cccc(F)c4)nc3)CC2)cc1 (centres unmarked) [Example 534, 6-(3-Fluorophenyl)-N-{1-[2-(4-methoxyphenyl)-1-methylethyl]piperidin-4-yl}nicotinamide] | 9.63
40 | COc1ccc(C(C)N2CCC(NC(=O)c3ccc(-c4cccc(F)c4)nc3)CC2)cc1 (centres unmarked) [Example 535, 6-(3-Fluorophenyl)-N-{1-[1-(4-methoxyphenyl)ethyl]piperidin-4-yl}nicotinamide] | 8.68
41 | COc1ccc(C(C)N2CCC(NC(=O)c3ccc(-c4cccc(F)c4)nc3)CC2)cc1OC (centres unmarked) [Example 536, N-{1-[1-(3,4-Dimethoxyphenyl)ethyl]piperidin-4-yl}-6-(3-fluorophenyl)nicotinamide] | 8.76
